Tests used:
[1] = molecular target: Cbl-b (36-427 aa truncated form, N-terminus Avi-tag) (Homo sapiens (Human), UniProt Q13191); assay: Cbl-b binding: TR-FRET displacement of BODIPY-FL probe
Procedure, shortened: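 Avi-tagged Cbl-b 36-427 preincubated 1 h at RT with streptavidin-terbium in HEPES pH 7.5/NaCl/Triton/BSA/TCEP buffer, then 1 uM BODIPY-FL inhibitor probe plus compound added for 1 h. Probe displacement read by TR-FRET; IC50 fitted.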

[2] = system: Human primary T cells; assay: T cell activation: secreted IL-2; assay type: cell-based; settings: 48 hours, fold over background normalized to Compound 141A; for IL-2 1 nM: 1 nM compound; for IL-2 10 nM: 10 nM compound; for IL-2 100 nM: 100 nM compound
Procedure, shortened: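 Negatively selected human primary T cells on plate-bound anti-CD3 (OKT3) in serum-free medium, treated 48 h at 37° C. with serial compound dilutions in duplicate. Secreted IL-2 by bead-based cytometric assay, expressed as fold over anti-CD3/CD28 background normalized to a reference compound, then binned into ranges.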

[3] = system: Human primary T cells; assay: T cell activation: secreted IFN-y; assay type: cell-based; settings: 48 hours, fold over background normalized to Compound 141A; for IFN-y 1 nM: 1 nM compound; for IFN-y 10 nM: 10 nM compound; for IFN-y 100 nM: 100 nM compound
Procedure, shortened: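 Negatively selected primary human T cells (1×10^5/well, serum-free XVivo-15) on plates coated with 10 μg/mL anti-CD3 were exposed to serial compound dilutions for 48 h at 37 °C. Secreted IFN-γ was measured by cytometric bead array and expressed as fold over anti-CD3/CD28 background, normalized to a reference compound and binned into ranges A–D.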

[4] = system: Human primary T cells; assay: T cell activation: CD69 surface expression by flow cytometry; assay type: cell-based; settings: fold over anti-CD3 stimulated background normalized to Compound 141A; for CD69 10 nM: 10 nM compound; for CD69 100 nM: 100 nM compound; for CD69 1 nM: 1 nM compound
Procedure, shortened: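 Negatively selected human primary T cells (1×10^5/well, XVivo-15) were captured on plates coated with 10 μg/mL anti-CD3 (OKT3). They were exposed to serially diluted compounds in duplicate for 48 h at 37° C. CD69 was read by flow cytometry as fold over anti-CD3-only background, normalized to Compound 141A and binned into ranges.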

Chain of Cbl-b (36-427 aa truncated form, N-terminus Avi-tag) (Q13191 36-427): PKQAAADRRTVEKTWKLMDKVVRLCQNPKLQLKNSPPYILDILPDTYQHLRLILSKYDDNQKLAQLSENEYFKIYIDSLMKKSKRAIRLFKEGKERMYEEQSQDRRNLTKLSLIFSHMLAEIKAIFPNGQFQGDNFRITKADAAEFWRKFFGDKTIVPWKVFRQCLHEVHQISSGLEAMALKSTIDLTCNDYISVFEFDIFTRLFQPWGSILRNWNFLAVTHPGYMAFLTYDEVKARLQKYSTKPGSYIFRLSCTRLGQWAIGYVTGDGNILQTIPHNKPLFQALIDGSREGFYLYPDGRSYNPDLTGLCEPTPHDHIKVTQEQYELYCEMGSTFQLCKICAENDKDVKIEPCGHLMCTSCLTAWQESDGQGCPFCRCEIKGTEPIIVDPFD

Structure (SMILES): C[C@H]1CCCN(Cc2cc3c(c(C(F)(F)F)c2)CN(c2cc(C4(Cc5nncn5C)COC4)cc(N4CCN(C(=O)CCCN=[N+]=[N-])CC4)n2)C3=O)C1 [Compound 136, (S)-2-(6-(4-(4-azidobutanoyl)piperazin-1-yl)-4-(3-((4-methyl-4H-1,2,4-triazol-3-yl)methyl)oxetan-3-yl)pyridin-2-yl)-6-((3-methylpiperidin-1-yl)methyl)-4-(trifluoromethyl)isoindolin-1-one]
- IC50 [1]: 5.01 to 20 nM
- IL-2 1 nM [2]: C (values between 0.10 and 0.30: range “C”)
- IL-2 10 nM [2]: B (values between 0.31 and 0.79: range “B”)
- IL-2 100 nM [2]: B (values between 0.31 and 0.79: range “B”)
- IFN-y 1 nM [3]: C (values between 0.10 and 0.30: range “C”)
- IFN-y 10 nM [3]: B (values between 0.31 and 1.00: range “B;”)
- IFN-y 100 nM [3]: B (values between 0.31 and 1.00: range “B;”)
- CD69 10 nM [4]: B (values between 0.61 and 0.80: range “B;”)
- CD69 100 nM [4]: A (values between 0.81 and 1.10: range “A”)

Structure (SMILES): CC#CC(=O)N1CCN(c2cc(C3(Cc4nncn4C)COC3)cc(N3Cc4c(cc(CN5CCC[C@H](C)C5)cc4C(F)(F)F)C3=O)n2)CC1 [Compound 137]
- IC50 [1]: 5.01 to 20 nM
- IL-2 1 nM [2]: C (values between 0.10 and 0.30: range “C”)
- IL-2 10 nM [2]: B (values between 0.31 and 0.79: range “B”)
- IL-2 100 nM [2]: B (values between 0.31 and 0.79: range “B”)
- IFN-y 1 nM [3]: B (values between 0.31 and 1.00: range “B;”)
- IFN-y 10 nM [3]: B (values between 0.31 and 1.00: range “B;”)
- IFN-y 100 nM [3]: B (values between 0.31 and 1.00: range “B;”)
- CD69 10 nM [4]: B (values between 0.61 and 0.80: range “B;”)
- CD69 100 nM [4]: A (values between 0.81 and 1.10: range “A”)

Structure (SMILES): CCNc1cc(C2(Cc3nncn3C)COC2)cc(N2Cc3c(cc([C@H](CSC)N4CCC[C@H](C)C4)cc3C(F)(F)F)C2=O)n1 [Compound 141A, 2-[6-(ethylamino)-4-{3-[(4-methyl-1,2,4-triazol-3-yl)methyl]oxetan-3-yl}pyridin-2-yl]-6-[(1R)-1-[(3S)-3-methylpiperidin-1-yl]-2-(methylsulfanyl)ethyl]-4-(trifluoromethyl)-3H-isoindol-1-one]
- IC50 [1]: 5.01 to 20 nM
- IL-2 1 nM [2]: B (values between 0.31 and 0.79: range “B”)
- IL-2 10 nM [2]: B (values between 0.31 and 0.79: range “B”)
- IL-2 100 nM [2]: A (between 0.80 and 1.40: range “A”)
- IFN-y 1 nM [3]: B (values between 0.31 and 1.00: range “B;”)
- IFN-y 10 nM [3]: B (values between 0.31 and 1.00: range “B;”)
- IFN-y 100 nM [3]: A (fold over background between 1.10 and 2.00: range “A”)
- CD69 10 nM [4]: A (values between 0.81 and 1.10: range “A”)
- CD69 100 nM [4]: A (values between 0.81 and 1.10: range “A”)

Structure (SMILES): CCNc1cc(C2(Cc3nncn3C)COC2)cc(N2Cc3c(cc([C@@H](CSC)N4CCC[C@H](C)C4)cc3C(F)(F)F)C2=O)n1 [Compound 141B, 2-[6-(ethylamino)-4-{3-[(4-methyl-1,2,4-triazol-3-yl)methyl]oxetan-3-yl}pyridin-2-yl]-6-[(1s)-1-[(3S)-3-methylpiperidin-1-yl]-2-(methylsulfanyl)ethyl]-4-(trifluoromethyl)-3H-isoindol-1-one]
- IC50 [1]: 5.01 to 20 nM
- IL-2 1 nM [2]: B (values between 0.31 and 0.79: range “B”)
- IL-2 10 nM [2]: B (values between 0.31 and 0.79: range “B”)
- IL-2 100 nM [2]: B (values between 0.31 and 0.79: range “B”)
- IFN-y 1 nM [3]: C (values between 0.10 and 0.30: range “C”)
- IFN-y 10 nM [3]: B (values between 0.31 and 1.00: range “B;”)
- IFN-y 100 nM [3]: B (values between 0.31 and 1.00: range “B;”)
- CD69 10 nM [4]: A (values between 0.81 and 1.10: range “A”)
- CD69 100 nM [4]: A (values between 0.81 and 1.10: range “A”)

Structure (SMILES): CSc1cc(CN2CCC[C@H](C)C2)cc2c1CN(c1cccc([C@]3(c4nncn4C)C[C@H](C)C3)c1)C2=O [Compound 150, 6-{[(3S)-3-methylpiperidin-1-yl]methyl}-4-(methylsulfanyl)-2-{3-[(1r,3s)-3-methyl-1-(4-methyl-1,2,4-triazol-3-yl)cyclobutyl]phenyl}-3H-isoindol-1-one]
- IC50 [1]: 1 to 5 nM
- IL-2 1 nM [2]: D (values between 0.01 and 0.09: range “D.”)
- IL-2 10 nM [2]: C (values between 0.10 and 0.30: range “C”)
- IL-2 100 nM [2]: B (values between 0.31 and 0.79: range “B”)
- IFN-y 1 nM [3]: B (values between 0.31 and 1.00: range “B;”)
- IFN-y 10 nM [3]: B (values between 0.31 and 1.00: range “B;”)
- IFN-y 100 nM [3]: A (fold over background between 1.10 and 2.00: range “A”)
- CD69 1 nM [4]: C (values between 0.30 and 0.60: range “C”)
- CD69 10 nM [4]: C (values between 0.30 and 0.60: range “C”)
- CD69 100 nM [4]: A (values between 0.81 and 1.10: range “A”)

Structure (SMILES): CC1CC(c2cccc(N3Cc4c(cc(C(CO)N5CCC[C@H](C)C5)cc4C(F)(F)F)C3=O)c2)(c2nncn2C)C1 (stereo partly drawn) [Compound 152, 6-{2-hydroxy-1-[(3S)-3-methylpiperidin-1-yl]ethyl}-2-{3-[(1r,3s)-3-methyl-1-(4-methyl-1,2,4-triazol-3-yl)cyclobutyl]phenyl}-4-(trifluoromethyl)-3H-isoindol-1-one]
- IC50 [1]: 1 to 5 nM
- IL-2 1 nM [2]: C (values between 0.10 and 0.30: range “C”)
- IL-2 10 nM [2]: C (values between 0.10 and 0.30: range “C”)
- IL-2 100 nM [2]: C (values between 0.10 and 0.30: range “C”)
- IFN-y 1 nM [3]: C (values between 0.10 and 0.30: range “C”)
- IFN-y 10 nM [3]: B (values between 0.31 and 1.00: range “B;”)
- IFN-y 100 nM [3]: B (values between 0.31 and 1.00: range “B;”)
- CD69 1 nM [4]: C (values between 0.30 and 0.60: range “C”)
- CD69 10 nM [4]: C (values between 0.30 and 0.60: range “C”)
- CD69 100 nM [4]: A (values between 0.81 and 1.10: range “A”)

Structure (SMILES): CSc1cc(CN2CCC[C@H](C)C2)cc2c1CN(c1cc(C3(Cc4nncn4C)COC3)cc(NCCC#N)n1)C2=O.O=C(O)C(F)(F)F [Compound 154, 3-[(4-{3-[(4-methyl-1,2,4-triazol-3-yl)methyl]oxetan-3-yl}-6-(6-{[(3S)-3-methylpiperidin-1-yl]methyl}-4-(methylsulfanyl)-1-oxo-3H-isoindol-2-yl)pyridin-2-yl)amino]propanenitrile; trifluoroacetic acid]
- IC50 [1]: 1 to 5 nM
- IL-2 1 nM [2]: D (values between 0.01 and 0.09: range “D.”)
- IL-2 10 nM [2]: D (values between 0.01 and 0.09: range “D.”)
- IL-2 100 nM [2]: C (values between 0.10 and 0.30: range “C”)
- IFN-y 1 nM [3]: B (values between 0.31 and 1.00: range “B;”)
- IFN-y 10 nM [3]: B (values between 0.31 and 1.00: range “B;”)
- IFN-y 100 nM [3]: B (values between 0.31 and 1.00: range “B;”)
- CD69 1 nM [4]: C (values between 0.30 and 0.60: range “C”)
- CD69 10 nM [4]: C (values between 0.30 and 0.60: range “C”)
- CD69 100 nM [4]: B (values between 0.61 and 0.80: range “B;”)

Structure (SMILES): Cn1cnnc1CC1(c2cc(NCCC#N)nc(N3Cc4c(cc(CN5CCCC6OCCC65)cc4C(F)(F)F)C3=O)c2)COC1 (stereo not shown) [Compound 162, 3-{[6-(6-{hexahydro-2H-furo[3,2-b]pyridin-4-ylmethyl}-1-oxo-4-(trifluoromethyl)-3H-isoindol-2-yl)-4-{3-[(4-methyl-1,2,4-triazol-3-yl)methyl]oxetan-3-yl}pyridin-2-yl]amino}propanenitrile]
- IC50 [1]: 5.01 to 20 nM
- IL-2 1 nM [2]: D (values between 0.01 and 0.09: range “D.”)
- IL-2 10 nM [2]: D (values between 0.01 and 0.09: range “D.”)
- IL-2 100 nM [2]: D (values between 0.01 and 0.09: range “D.”)
- IFN-y 1 nM [3]: C (values between 0.10 and 0.30: range “C”)
- IFN-y 10 nM [3]: B (values between 0.31 and 1.00: range “B;”)
- IFN-y 100 nM [3]: B (values between 0.31 and 1.00: range “B;”)
- CD69 1 nM [4]: C (values between 0.30 and 0.60: range “C”)
- CD69 10 nM [4]: C (values between 0.30 and 0.60: range “C”)
- CD69 100 nM [4]: C (values between 0.30 and 0.60: range “C”)

Reference: patent US20250304563A1, “ACTIVATORS OF EFFECTOR T CELLS” (Orum Therapeutics, Inc., priority 2022, published 2025)
